Source: US20180185520A1, “COLLAGEN IMAGING COMPOSTIONS” (Collagen Medical, LLC, priority 2015, published 2018)

What was measured:
[1] = target: T1, human type I collagen (Homo sapiens, UniProt P02452+P08123); test: Collagen binding assay, dried human collagen in microtiter plate; settings: 37° C., pH 7.4
T1 construct: purchased Advanced Biomatrix 5007-A
Experimental: 10 ml of a solution of 3 mg/ml of human type I collagen (VitroCol solution, Advanced Biomatrix, cat#5007-A) is dialyzed against 10 mM Phosphate (NaH2PO4), pH 4.2 at 4° C. with three changes of the dialysis buffer. The protein concentration is determined by liquid chromatography determination of hydroxyproline (P. Hutson, J. Chromatogr. B, 791 (2003) 427-430).
Ice-cold 1×PBS pH 10.8 is added to the collagen solution for a final collagen concentration of 10 μM, pH 7.4. Collagen solutions are gelled and dried down in the wells of a 96 well microtiter plate (Corning Polystyrene Flat Bottom, cat#3641). […] The final well content of gelled collagen is measured by determination of hydroxyproline and is around 180 μg/ml.
a serial dilution of 0.2 μM-30 μM of the peptide chelate is prepared in PBS, pH 7.4 ([…], of solution for each concentration). […] The concentration of free, unbound compound in the sample supernatants and the concentration of compound in the reserved (total) sample are determined by ICP-MS (Agilent 7500, gadolinium concentration). The concentration of compound bound to collagen is determined as [bound]=[total]−[unbound].
The binding of compounds to human, rat and dog collagen (5 μM) was measured over the concentration range 0.2-5 μM of Comp ID Nos.: 1-4. […]

[2] = Pharmacokinetics (rat), plasma gadolinium by ICP-MS; assay type: in vivo, Sprague Dawley rats; settings: 1.3 umol/kg iv bolus in 80 mM sucrose, pH 7, plasma 2-90 minutes
Experimental: Compound ID No. 1 was formulated at pH 7 in 80 mM sucrose and administered to Sprague Dawley rats (n=2) at dose of 1.3 umol/kg using a bolus IV injection. Plasma was sampled at 2, 5, 15, 30, and 90 minutes post-injection and analyzed for gadolinium content using ICP-MS (FIG. 15).

[3] = test system: liver fibrosis; test: Detection of liver fibrosis by MRI, mouse CCl4 model; assay type: in vivo, C57BL/6 male mice; settings: 10 μmol/kg i.v., out to 45 minutes, 7T
Experimental: Strain C57BL/6 male mice at approximately 3 weeks of age were purchased from Jackson Laboratory (Bar Harbor, Me.). All mice were randomly assigned to two groups: a control group (n=3) and a CCl4 group (n=8). Mice were treated three times a week for 10 weeks with either 0.04 mL of a 40 percent solution of CCl4 (Sigma, St. Louis, Mo.) in olive oil or with vehicle (olive oil only) by oral gavage. Animals from both models were imaged one week after the last injection. Mice were imaged on a 7T pre-clinical […] scanner (Bruker Biospin, Billerica, Mass.). Mice were imaged before and immediately after a 10 μmol/kg intravenous injection of COMPOUND ID NO. 1 and imaging was repeated out to 45 minutes post-injection. Following imaging, animals were sacrificed 50 min post COMPOUND ID NO. 1 injection and sections of each of the liver lobes were taken for gadolinium analysis by ICP-MS, hydroxyproline (Hyp) determination, and histology (Sirius Red staining). From the MRI data, the contrast to noise ratio (CNR, where CNR=(signal liver-signal muscle)/noise) was calculated for the liver before and at repeated time points after 10 μmol/kg injection of the COMPOUND ID NO. 1. After probe COMPOUND ID NO. […] Plots of CNR as a function of time post injection were made and the area under this CNR vs time curve was calculated. […] 1 in liver as assessed by gadolinium measurement (R^2=0.83). […]

[4] = test system: liver fibrosis; test: Detection of liver fibrosis by MRI, rat bile duct ligation model; assay type: in vivo, male CD rats; settings: 10 μmol/kg i.v., 30 minutes, 1.5 tesla
Excerpt: Liver fibrosis was induced in male CD rats (n=8) by ligation of the common bile duct (Charles River Labs, Wilmington, Mass.). Control animals (n=12) underwent a control procedure. Rats were imaged 19 days following ligation. Rats were imaged on a 1.5-tesla clinical MRI scanner (Siemens Healthcare, Malvern, Pa.) using a home-built, transmit-receive solenoid coil. Animals were anesthetized with 1-2% isoflurane and respiration rate was monitored with a small animal physiological monitoring system (SA Instruments, Inc., Stony Brook, N.Y.). Respiratory-gated, 3D Inversion Recovery (IR) Fast Low Angle Shot (FLASH) images were acquired prior to and 30 minutes following intravenous administration of 10 μmol/kg COMPOUND ID NO. 1. A non-selective inversion pulse was used and images were acquired with inversion recovery times of 50, 100, 200, 250, 300, 400 and 1000 ms. Image acquisition parameters consisted of an echo time of TE=2.44 ms, field-of-view FOV=120×93 mm, matrix=192×150 (0.625 mm in-plane resolution), slice thickness=0.6 mm, and 36 image slices. […] Following imaging, animals were sacrificed and liver tissue was subjected to pathologic scoring of fibrosis and analyzed for hydroxyproline content. […]
Liver fibrosis was detected by MRI by measuring the change in liver R1 after injection of COMPOUND ID NO. […]

T1 sequence (P02452 162-1218 limits assumed): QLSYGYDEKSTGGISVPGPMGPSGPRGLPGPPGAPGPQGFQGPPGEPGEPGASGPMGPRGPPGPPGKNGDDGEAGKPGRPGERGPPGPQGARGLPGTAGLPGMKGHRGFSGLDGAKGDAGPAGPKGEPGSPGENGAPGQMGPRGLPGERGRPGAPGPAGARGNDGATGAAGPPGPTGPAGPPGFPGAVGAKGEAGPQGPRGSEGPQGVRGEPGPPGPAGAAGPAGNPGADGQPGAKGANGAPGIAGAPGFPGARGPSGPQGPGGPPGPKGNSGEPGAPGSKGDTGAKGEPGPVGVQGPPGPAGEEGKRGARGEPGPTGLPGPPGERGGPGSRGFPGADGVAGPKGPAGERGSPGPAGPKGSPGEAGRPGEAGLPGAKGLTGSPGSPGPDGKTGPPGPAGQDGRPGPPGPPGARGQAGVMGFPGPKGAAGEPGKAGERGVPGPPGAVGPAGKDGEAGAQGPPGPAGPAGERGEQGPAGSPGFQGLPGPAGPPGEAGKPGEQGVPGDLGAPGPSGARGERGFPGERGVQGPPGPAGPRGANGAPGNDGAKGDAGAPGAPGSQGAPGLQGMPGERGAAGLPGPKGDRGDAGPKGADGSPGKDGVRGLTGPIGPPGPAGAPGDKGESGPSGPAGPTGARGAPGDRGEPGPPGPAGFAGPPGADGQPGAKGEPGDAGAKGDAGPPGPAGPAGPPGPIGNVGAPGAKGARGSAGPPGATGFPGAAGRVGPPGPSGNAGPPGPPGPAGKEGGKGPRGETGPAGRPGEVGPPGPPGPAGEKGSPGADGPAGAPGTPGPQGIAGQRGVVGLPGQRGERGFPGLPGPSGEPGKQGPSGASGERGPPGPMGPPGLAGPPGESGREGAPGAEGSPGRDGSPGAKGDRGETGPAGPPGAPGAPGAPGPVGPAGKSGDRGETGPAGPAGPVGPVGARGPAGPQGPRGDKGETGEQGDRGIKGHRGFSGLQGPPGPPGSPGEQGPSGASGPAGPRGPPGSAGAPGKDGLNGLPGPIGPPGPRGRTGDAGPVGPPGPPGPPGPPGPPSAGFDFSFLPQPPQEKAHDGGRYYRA
T1 sequence (P08123 80-1119 limits assumed): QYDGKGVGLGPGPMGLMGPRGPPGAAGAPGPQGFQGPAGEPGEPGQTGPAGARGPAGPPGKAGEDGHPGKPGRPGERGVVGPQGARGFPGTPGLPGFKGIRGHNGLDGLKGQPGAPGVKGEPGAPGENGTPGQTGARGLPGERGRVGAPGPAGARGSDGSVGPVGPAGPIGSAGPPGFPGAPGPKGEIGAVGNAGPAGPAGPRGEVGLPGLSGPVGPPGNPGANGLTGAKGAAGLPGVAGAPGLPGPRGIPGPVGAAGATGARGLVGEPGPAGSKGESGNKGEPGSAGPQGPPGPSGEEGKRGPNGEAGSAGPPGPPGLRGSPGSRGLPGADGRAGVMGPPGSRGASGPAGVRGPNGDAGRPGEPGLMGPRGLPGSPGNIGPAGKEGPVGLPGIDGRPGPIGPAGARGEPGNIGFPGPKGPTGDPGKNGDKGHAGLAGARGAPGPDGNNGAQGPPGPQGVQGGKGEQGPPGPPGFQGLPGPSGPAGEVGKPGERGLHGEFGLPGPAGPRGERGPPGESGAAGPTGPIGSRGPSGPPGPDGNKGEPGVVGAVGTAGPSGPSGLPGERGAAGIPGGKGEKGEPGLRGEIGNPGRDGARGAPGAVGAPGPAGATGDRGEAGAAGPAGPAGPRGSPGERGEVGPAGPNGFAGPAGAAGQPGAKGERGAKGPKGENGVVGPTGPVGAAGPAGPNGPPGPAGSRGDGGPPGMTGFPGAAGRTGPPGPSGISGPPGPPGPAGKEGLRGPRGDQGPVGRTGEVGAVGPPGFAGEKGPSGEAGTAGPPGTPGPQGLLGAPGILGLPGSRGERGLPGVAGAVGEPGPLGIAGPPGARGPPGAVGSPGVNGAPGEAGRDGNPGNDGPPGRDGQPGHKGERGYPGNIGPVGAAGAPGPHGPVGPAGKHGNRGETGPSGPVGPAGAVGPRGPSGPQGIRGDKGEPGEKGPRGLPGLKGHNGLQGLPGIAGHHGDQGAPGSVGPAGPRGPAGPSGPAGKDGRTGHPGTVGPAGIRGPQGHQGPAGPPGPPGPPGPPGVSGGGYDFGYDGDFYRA

In the case of CC(C)C[C@H](NC(=O)[C@@H]1CSSC[C@H](NC(=O)[C@H](Cc2c[nH]cn2)NC(=O)[C@H](Cc2c[nH]c3ccccc23)NC(=O)[C@H](CCCCNC(=O)CC[C@H](C(=O)O)N2CCN(CC(=O)O)CCN(CC(=O)O)CCN(CC(=O)O)CC2)NC(=O)CNC(=O)CC[C@H](C(=O)O)N2CCN(CC(=O)O)CCN(CC(=O)O)CCN(CC(=O)O)CC2)C(=O)N[C@@H]([C@@H](C)O)C(=O)N[C@@H]([C@@H](C)O)C(=O)N[C@@H](CCCCNC(=O)CC[C@H](C(=O)O)N2CCN(CC(=O)O)CCN(CC(=O)O)CCN(CC(=O)O)CC2)C(=O)N[C@@H](Cc2ccccc2)C(=O)N2CCC[C@H]2C(=O)N[C@@H](Cc2c[nH]cn2)C(=O)N[C@@H](Cc2c[nH]cn2)C(=O)N[C@@H](Cc2ccc(O)cc2)C(=O)N1)C(=O)N[C@@H](Cc1ccc(O)cc1)C(=O)N[C@@H](Cc1ccc(-c2ccccc2)cc1)C(N)=O [Compound ID No. 1], the Kd [1] is reported as 3.8 µM, the pharmacokinetic profile [2] is reported as “rapid initial blood clearance” and the “area under the CNR vs time curve (liver)” value ([3]; CCl4 treated mice) is reported as 1447±192. For the same molecule, the “area under the CNR vs time curve (liver)” value ([3]; vehicle (olive oil) treated control mice given the probe) was 889±173, the “ΔR1 (change in liver R1 after injection)” value ([4]; BDL animals, 19 days after ligation) was 0.49 ± 0.22 s⁻¹ and the “ΔR1 (change in liver R1 after injection)” value ([4]; sham animals) was 0.15 ± 0.14 s⁻¹.
